Twelve compounds from ChEMBL document CHEMBL4742389, “Cyclohexyl benzamide compounds” (2019) can be followed below.

SMILES strings stand for the structures.

The target of test [1] is T1, Probable G-protein coupled receptor 142 (Homo sapiens, UniProt Q7Z601).
T1 sequence (Q7Z601 whole entry): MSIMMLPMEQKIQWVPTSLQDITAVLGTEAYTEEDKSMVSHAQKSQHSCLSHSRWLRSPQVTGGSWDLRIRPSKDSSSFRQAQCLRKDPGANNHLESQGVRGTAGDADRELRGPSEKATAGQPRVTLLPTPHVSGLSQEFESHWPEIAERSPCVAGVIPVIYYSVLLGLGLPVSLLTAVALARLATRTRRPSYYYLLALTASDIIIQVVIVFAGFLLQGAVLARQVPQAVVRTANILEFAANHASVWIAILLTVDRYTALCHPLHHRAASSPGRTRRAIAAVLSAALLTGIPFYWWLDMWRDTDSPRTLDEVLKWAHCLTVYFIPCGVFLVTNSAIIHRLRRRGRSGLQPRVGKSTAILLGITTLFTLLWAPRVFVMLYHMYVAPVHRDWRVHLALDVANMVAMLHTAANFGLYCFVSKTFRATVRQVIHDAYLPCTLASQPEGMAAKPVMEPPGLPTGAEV
Briefly: Agonist activity at human GPR142 receptor expressed in HEK293 cells assessed as accumulation of inositol phosphate incubated for 1 hr followed by IP1-d2 addition by HTRF assay. Type of test: functional, cell-based. Background: TR-FRET usually uses a lanthanide donor and a delayed reading to cut background.

Test [2] deals with T2, Probable G-protein coupled receptor 142 (Homo sapiens) (UniProt Q7Z601).
T2 sequence (whole entry): T1 sequence (Q7Z601 whole entry)
Kind of test: Agonist activity at human GPR142 receptor expressed in HEK293 cells assessed as accumulation of inositol phosphate incubated for 1 hr followed by IP1-d2 addition by HTRF assay relative to control. Type of test: functional, cell-based. The conditions noted are these: filed as agonist.

The test system of another test is Mus musculus. Kind of test: Antidiabetic activity in po dosed lean C57BL/6J mouse assessed as reduction in glucose level administered 90 mins prior to glucose challenge measured for 60 mins by IPGTT. The note with it: 2.5 h, time 150 min. It is filed as functional.

`Cc1nc[nH]c1-c1nnc([C@H]2CCC[C@@H](N(C)C(=O)c3cccc(OC(F)(F)F)c3)C2)[nH]1`: in test [1], the EC50 (usually the concentration at which the effect is half-maximal) was less than 120 nM. Moreover, the Efficacy in test [2] was 120%.
`CN(C(=O)c1cccc(C(F)(F)F)c1)[C@@H]1CCC[C@H](c2nnc(-c3cnc4n3CCOC4)[nH]2)C1`: the EC50 in test [1] is less than 120 nM. In addition, the Efficacy in test [2] is 120%.
`Cc1ncn(C)c1-c1nnc([C@H]2CCC[C@@H](N(C)C(=O)c3cccc(C(F)(F)F)c3)C2)[nH]1`: the EC50 in test [1] is less than 120 nM. Moreover, in test [2], the Efficacy was found to be 120%.
The matching figures for `Cc1ncc(-c2nnc([C@H]3CCC[C@@H](N(C)C(=O)c4cccc(C(F)(F)F)c4)C3)[nH]2)n1C`: less than 120 nM and 120%.
In the same order, the values of `Cc1nc[nH]c1-c1nnc([C@H]2CCC[C@@H](N(C)C(=O)c3cccc(Cl)c3)C2)[nH]1` are less than 120 nM and 120%.
On to `Cc1ncn(C)c1-c1nnc([C@H]2CCC[C@@H](N(C)C(=O)c3cccc(Cl)c3)C2)[nH]1`, for which the median effective dose (ED50) (in general, the dose at which the effect has come halfway, by size or by number of responders) in the test with Mus musculus amounted to 0.25 mg/kg. Further, the Efficacy in test [2] stood at 110%.
As to `Cc1ncn(C)c1-c1nnc([C@@H]2CCC[C@H](N(C)C(=O)c3cccc(Cl)c3)C2)[nH]1`, in test [2], the Efficacy came to 120%.
As to `Cc1ncc(-c2nnc([C@H]3CCC[C@@H](N(C)C(=O)c4cccc(Cl)c4)C3)[nH]2)n1C`, the 50% effective concentration (EC50) in test [1] was less than 120 nM. Also, the Efficacy in test [2] was found to be 120%.
Consider `Cc1nc[nH]c1-c1nnc([C@H]2CCC[C@@H](N(C)C(=O)c3cccc(C(F)(F)F)c3)C2)[nH]1`, for which the half-maximal effective concentration (EC50) in test [1] was less than 120 nM. Also, the Efficacy in test [2] amounted to 120%.
In the same order, the values of `Cc1ncc(-c2nnc([C@H]3CCC[C@@H](N(C)C(=O)c4cccc(C(F)(F)F)c4)C3)[nH]2)[nH]1` are less than 120 nM and 120%.
Regarding `COCCn1cnc(C)c1-c1nnc([C@H]2CCC[C@@H](N(C)C(=O)c3cccc(Cl)c3)C2)[nH]1`, the concentration giving a half-maximal response (EC50) in test [1] was less than 120 nM. In addition, in test [2], the Efficacy was 120%.
The matching figures for `Cc1ncn(CC(F)F)c1-c1nnc([C@H]2CCC[C@@H](N(C)C(=O)c3cccc(C(F)(F)F)c3)C2)[nH]1`: less than 120 nM and 120%.
